The values that follow come from PubChem BioAssay (NCI).

Test systems include HCT-116 colon; IGROV1 ovarian; 786-0 renal; OVCAR-5 ovarian; COLO 205 colon; M14 melanoma; SNB-75 CNS; SR leukemia; HL-60(TB) leukemia; HOP-62 NSCLC.
Common to all, as to assay: NCI tumour cell line growth inhibition, 48 h

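Test compounds were applied to cells in 96-well plates for 48 hours at 5 doses. The concentration for 50% growth inhibition is given as GI50. TGI: total growth inhibition.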

Consider `C=C(C)[C@@H]1CC[C@]2(c3ncc(C)o3)CC[C@]3(C)[C@H](CC[C@@H]4[C@@](C)(CCC#N)[C@H](C(=C)C)CC[C@]43C)[C@@H]12`, for which the GI50 with HCT-116 colon was 4.41 µM; in the test on IGROV1 ovarian it was 5.07 µM; in the test with 786-0 renal, 8.23 µM; in the test with OVCAR-5 ovarian it was 8.73 µM; with COLO 205 colon, 5.79 µM; with M14 melanoma, 7.8 µM. In addition, the GI50 is 2.44 µM with SNB-75 CNS, 2.75 µM in the test with SR leukemia, 2.49 µM in the test on HL-60(TB) leukemia and 6.99 µM in the test with HOP-62 NSCLC. Further, the TGI in the test with HCT-116 colon turned out to be 16.4 µM; in the test with IGROV1 ovarian, 19.1 µM; in the test on 786-0 renal, 23.4 µM; in the test with OVCAR-5 ovarian it was 21.1 µM; in the test on COLO 205 colon, 21.4 µM; in the test with M14 melanoma, 24.2 µM. Also, the TGI in the test with SNB-75 CNS was 16.6 µM; in the test with SR leukemia, above 100 µM; in the test on HL-60(TB) leukemia, 6.83 µM; in the test with HOP-62 NSCLC it was 21.6 µM.
In the case of `CCCCn1c(=O)c(/C=C/C(=O)/C=C/c2ccc(O)c(OC)c2)cc2ccc(Cl)cc21`, the GI50 in the test with HCT-116 colon was 1.52 µM; with IGROV1 ovarian it was 1.92 µM; with 786-0 renal, 1.77 µM; in the test on OVCAR-5 ovarian, 2.57 µM; in the test with COLO 205 colon it was 1.72 µM; in the test on M14 melanoma, 1.86 µM. Also, the GI50 in the test on SNB-75 CNS is 2.26 µM; in the test with SR leukemia, 2.04 µM; in the test with HL-60(TB) leukemia it was 2.34 µM; in the test on HOP-62 NSCLC it was 1.81 µM. Besides, the TGI with HCT-116 colon was determined as 3 µM; in the test on IGROV1 ovarian it was 4.1 µM; with 786-0 renal, 3.31 µM; with OVCAR-5 ovarian it was 4.89 µM; in the test with COLO 205 colon, 4.83 µM; in the test on M14 melanoma, 4.17 µM. Further, the TGI with SNB-75 CNS is 6.22 µM; in the test on SR leukemia, 17.6 µM; in the test on HL-60(TB) leukemia it was 13.4 µM; in the test on HOP-62 NSCLC, 4.17 µM.
For the compound `COc1ccc(-n2nc(C)c3c(Nc4ccc(NC(=O)Nc5cc(C(F)(F)F)ccc5F)cc4)ncnc32)cc1`, the GI50 with HCT-116 colon is 2.81 µM; in the test with IGROV1 ovarian, 2.98 µM; with 786-0 renal, 2.04 µM; with OVCAR-5 ovarian it was 2.87 µM; in the test with COLO 205 colon it was 1.98 µM; in the test on M14 melanoma it was 1.9 µM. In addition, the GI50 with SNB-75 CNS is 1.21 µM; in the test on SR leukemia, 2.87 µM; in the test on HL-60(TB) leukemia it was 2.55 µM; with HOP-62 NSCLC it was 2.97 µM. Further, the TGI was determined as 10.3 µM in the test on HCT-116 colon; 11.1 µM in the test on IGROV1 ovarian; 5.2 µM with 786-0 renal; 10.6 µM in the test on OVCAR-5 ovarian; 4.93 µM in the test with COLO 205 colon; 4.64 µM in the test on M14 melanoma. Further, the TGI in the test with SNB-75 CNS was 7.84 µM; with SR leukemia it was above 100 µM; with HL-60(TB) leukemia, 6.67 µM; with HOP-62 NSCLC, 11.4 µM.
`CN1CCN(c2ccc(NC3=C(Cl)C(=O)c4ncccc4C3=O)cc2C(F)(F)F)CC1`: the GI50 is 1.69 µM in the test with HCT-116 colon; 1.56 µM in the test with IGROV1 ovarian; 1.84 µM in the test on 786-0 renal; 2.2 µM with OVCAR-5 ovarian; 1.89 µM in the test on COLO 205 colon; 1.78 µM with M14 melanoma. For the same compound, the GI50 with SNB-75 CNS was 5.44 µM; with SR leukemia, 0.355 µM; with HL-60(TB) leukemia, 1.79 µM; in the test with HOP-62 NSCLC it was 17.4 µM. Moreover, the TGI came out at 3.27 µM in the test with HCT-116 colon; 3.18 µM in the test with IGROV1 ovarian; 3.32 µM with 786-0 renal; 5.14 µM in the test on OVCAR-5 ovarian; 4.63 µM in the test with COLO 205 colon; 3.67 µM with M14 melanoma. Also, the TGI amounted to 19.8 µM in the test with SNB-75 CNS, 3.66 µM in the test on SR leukemia, 4.73 µM in the test with HL-60(TB) leukemia and 37.1 µM in the test on HOP-62 NSCLC.
As to `Cc1ccc2nc(NC(=O)CSC(=S)N3CCN(Cc4ccccc4)CC3)sc2c1`, the GI50 in the test with HCT-116 colon was above 96.7 µM; in the test with IGROV1 ovarian it was above 100 µM; in the test with 786-0 renal, above 100 µM; in the test on OVCAR-5 ovarian, above 100 µM; in the test on COLO 205 colon, above 100 µM; in the test on M14 melanoma, above 100 µM. Also, the GI50 in the test with SNB-75 CNS was above 100 µM; in the test on SR leukemia, above 100 µM; in the test on HL-60(TB) leukemia, above 83.6 µM; in the test with HOP-62 NSCLC it was above 100 µM. For the same compound, the TGI in the test with HCT-116 colon, in the test with IGROV1 ovarian, in the test on 786-0 renal, with OVCAR-5 ovarian, in the test on COLO 205 colon and with M14 melanoma was above 100 µM throughout. Further, the TGI in the test with SNB-75 CNS, in the test on SR leukemia, in the test on HL-60(TB) leukemia and in the test with HOP-62 NSCLC was above 100 µM each time.
Consider `Cc1cc(Cl)ccc1N1C(=O)C(=O)C(c2nc3ccccc3s2)/C(=N\NC(=O)c2ccccc2O)C1=O` (stereo not given), for which the TGI in the test with HCT-116 colon, in the test with IGROV1 ovarian, in the test on 786-0 renal, with OVCAR-5 ovarian, in the test on COLO 205 colon and in the test on M14 melanoma was above 100 µM each time. The TGI in the test on SNB-75 CNS, in the test on SR leukemia, in the test on HL-60(TB) leukemia and with HOP-62 NSCLC was above 100 µM in each case.
As for `CCN(CCc1ccc(F)cc1)c1ccc(CO)c(Cl)c1`, the GI50 is 1.85 µM in the test with HCT-116 colon; 0.824 µM in the test with IGROV1 ovarian; 12.2 µM in the test on 786-0 renal; 0.505 µM in the test with OVCAR-5 ovarian; 7.06 µM with COLO 205 colon; 13.8 µM in the test with M14 melanoma. The GI50 in the test on SNB-75 CNS was 9.26 µM; with SR leukemia, 13.1 µM; in the test on HL-60(TB) leukemia, 9.01 µM; with HOP-62 NSCLC, 13.1 µM. Further, the TGI worked out at 13.5 µM in the test on HCT-116 colon; 7.11 µM with IGROV1 ovarian; 27 µM with 786-0 renal; 2.28 µM in the test with OVCAR-5 ovarian; 21.5 µM in the test on COLO 205 colon; 28.7 µM with M14 melanoma. Also, the TGI stood at 25.9 µM with SNB-75 CNS, 42.5 µM in the test with SR leukemia, 30.3 µM with HL-60(TB) leukemia and 26.2 µM with HOP-62 NSCLC.
Turning to `O=C(O)C1(C(=O)O)CCN(S(=O)(=O)c2ccccc2)CC1`, the TGI in the test on HCT-116 colon, in the test on IGROV1 ovarian, in the test with 786-0 renal, in the test on OVCAR-5 ovarian, in the test with COLO 205 colon and with M14 melanoma was above 100 µM each time. The TGI with SNB-75 CNS, in the test on SR leukemia, in the test on HL-60(TB) leukemia and in the test with HOP-62 NSCLC was above 100 µM in each case.
